Source: patent US10808003B2, “Amphipathic molecule based on tandem malonate and use thereof” (Industry-University Cooperation Foundation Hanyang …, priority 2017, dated 2020)

Columns and labels:
[1] = Critical micelle concentration by fluorescent staining with diphenylhexatriene (DPH); assay type: physicochemical; conditions: aqueous solution
Protocol: A method of measuring CMC is not particularly limited, and any method well known in the art, for example, a fluorescent staining method using diphenylhexatriene (DPH) may be used.
(§1) Specifically, a CMC was measured using fluorescent staining and diphenylhexatriene (DPH), and the hydrodynamic radii (Rh) of micelles formed by each agent (1.0 wt %) were measured by a DLS test. The measured results were compared with those for the conventional amphipathic molecule (detergent), DDM, and thus are shown in Table 1.

[2] = Hydrodynamic radius of micelles by dynamic light scattering (DLS); assay type: physicochemical; conditions: for Rh (nm), hydrodynamic radius of micelles: micelles formed by each agent at 1.0 wt %
Protocol: A method of measuring the radius of the micelles is not particularly limited, and any method well known in the art, for example, a DLS test may be used.
as §1

[3] = system: LeuT (leucine transporter); test: LeuT stability by [3H]-Leu substrate binding, scintillation proximity assay (SPA); assay type: biochemical, Aquifex aeolicus; conditions: for activity of LeuT after incubation, relative to DDM: CMC+0.04 wt %, after incubation at room temperature; for activity of LeuT after incubation, relative to DDM / activity of LeuT over time: FIG. 13a; for activity of LeuT over time: TMMs or DDM at CMC+0.04 wt %, incubation at room temperature
Protocol: An experiment of measuring LeuT protein stability for TMGs and TMMs was performed. (a) CMC+0.04 wt % or (b) CMC+0.2 wt % of each amphipathic molecule was used, and the evaluation of the LeuT protein stability was performed by taking an advantage of a characteristic of LeuT binding to a substrate through a scintillation proximity assay (SPA) using [^3H]-Leu. […]
Specifically, wild type LeuT (leucine transporter) derived from a thermophilic bacterium, Aquifex aeolicus, was purified by a previously-disclosed method (G. Deckert et al., Nature 1998, 392, 353-358). LeuT was expressed in E. coli C41 (DE3) transformed with pET16b encoding a C-terminus 8×His-tagged transporter (the expression plasmid was provided by Dr E. Gouaux, Vollum Institute, Portland, Oreg., USA). In summary, following isolation of a bacterial membrane and lysis with 1% (w/v) DDM, the protein was allowed to bind to a Ni^2+-NTA resin (Life Technologies, Denmark), and eluted in 20 mM Tris-HCl (pH 8.0), 1 mM NaCl, 199 mM KCl, 0.05% (w/v) DDM and 300 mM imidazole. Afterward, the purified LeuT (approximately 1.5 mg/ml) was diluted with the same buffer used above, from which DDM and imidazole were removed, and then supplemented with TMGs or DDM at the final concentration of CMC+0.04% (w/v). […] SPA was performed using a buffer containing 450 mM NaCl and each of the TMGs and TMMs at the predetermined concentration. The SPA reaction is performed in the presence of 20 nM [^3H]-Leucine and 1.25 mg/ml copper chelate (His-Tag) YSi beads (Perkin Elmer, Denmark). A total [^3H]-Leucine binding degree of each sample was measured using a MicroBeta liquid scintillation counter (Perkin Elmer).

CMC [1]	CMC (wt %) [1]	Rh (nm), hydrodynamic radius of micelles [2]	substrate-binding ability of LeuT ([3]; TMGs or DDM at CMC+0.04 wt %, 10 days at room temperature)	activity of LeuT over time [3]	SMILES	micelle size and homogeneity in words ([2]; 1.0 wt %, FIGS. 5 and 6)	activity of LeuT after incubation, relative to DDM [3]	overall LeuT stabilisation characteristic among TMMs ([3]; CMC+0.04 wt % and CMC+0.2 wt %, FIGS. 13a and 13b)
~0.002 mM	~0.00044 wt %	3.6 ± 0.09 nm	–	slightly increased over time	CCCCCCCCCCC(CCCCCCCCCC)COCC(CO[C@@H]1OC(CO)[C@@H](O[C@H]2OC(CO)[C@@H](O)C(O)C2O)C(O)C1O)(CO[C@@H]1OC(CO)[C@@H](O[C@H]2OC(CO)[C@@H](O)C(O)C2O)C(O)C1O)CSCC(COCC(CCCCCCCCCC)CCCCCCCCCC)(CO[C@@H]1OC(CO)[C@@H](O[C@H]2OC(CO)[C@@H](O)C(O)C2O)C(O)C1O)CO[C@@H]1OC(CO)[C@@H](O[C@H]2OC(CO)[C@@H](O)C(O)C2O)C(O)C1O (stereo partly drawn) [TMM-C22]	–	two-fold higher than that of the protein dissolved in DDM	–
~0.0015 mM	~0.00034 wt %	3.9 ± 0.08 nm	–	slightly increased over time	CCCCCCCCCCCC(CCCCCCCCCCC)COCC(CO[C@@H]1OC(CO)[C@@H](O[C@H]2OC(CO)[C@@H](O)C(O)C2O)C(O)C1O)(CO[C@@H]1OC(CO)[C@@H](O[C@H]2OC(CO)[C@@H](O)C(O)C2O)C(O)C1O)CSCC(COCC(CCCCCCCCCCC)CCCCCCCCCCC)(CO[C@@H]1OC(CO)[C@@H](O[C@H]2OC(CO)[C@@H](O)C(O)C2O)C(O)C1O)CO[C@@H]1OC(CO)[C@@H](O[C@H]2OC(CO)[C@@H](O)C(O)C2O)C(O)C1O (stereo partly drawn) [TMM-C24]	–	two-fold higher than that of the protein dissolved in DDM	the most excellent characteristic and was superior to DDM
~0.0015 mM	~0.00034 wt %	4.3 ± 0.07 nm	–	–	CCCCCCCCCCCCC(CCCCCCCCCCCC)COCC(CO[C@@H]1OC(CO)[C@@H](O[C@H]2OC(CO)[C@@H](O)C(O)C2O)C(O)C1O)(CO[C@@H]1OC(CO)[C@@H](O[C@H]2OC(CO)[C@@H](O)C(O)C2O)C(O)C1O)CSCC(COCC(CCCCCCCCCCCC)CCCCCCCCCCCC)(CO[C@@H]1OC(CO)[C@@H](O[C@H]2OC(CO)[C@@H](O)C(O)C2O)C(O)C1O)CO[C@@H]1OC(CO)[C@@H](O[C@H]2OC(CO)[C@@H](O)C(O)C2O)C(O)C1O (stereo partly drawn) [TMM-C26]	–	protein activity similar to DDM	–

Continued, molecule first:

SMILES	CMC [1]	CMC (wt %) [1]	Rh (nm), hydrodynamic radius of micelles [2]	substrate-binding ability of LeuT ([3]; TMGs or DDM at CMC+0.04 wt %, 10 days at room temperature)	activity of LeuT over time [3]	micelle size and homogeneity in words ([2]; 1.0 wt %, FIGS. 5 and 6)	activity of LeuT after incubation, relative to DDM [3]	overall LeuT stabilisation characteristic among TMMs ([3]; CMC+0.04 wt % and CMC+0.2 wt %, FIGS. 13a and 13b)
CCCCCCCCCCCCOCC(CO[C@@H]1OC(CO)[C@@H](O)C(O)C1O)(CO[C@@H]1OC(CO)[C@@H](O)C(O)C1O)CSCC(COCCCCCCCCCCCC)(CO[C@@H]1OC(CO)[C@@H](O)C(O)C1O)CO[C@@H]1OC(CO)[C@@H](O)C(O)C1O (stereo partly drawn) [TMG-T12]	~0.015 mM	~0.0019 wt %	3.1 ± 0.06 nm	a better characteristic than DDM	–	–	–	–
CC(C)CCC[C@@H](C)C1CCC2C3CCC4CC(OCC(CO[C@@H]5OC(CO)[C@@H](O[C@H]6OC(CO)[C@@H](O)C(O)C6O)C(O)C5O)(CO[C@@H]5OC(CO)[C@@H](O[C@H]6OC(CO)[C@@H](O)C(O)C6O)C(O)C5O)CSCC(COC5CCC6(C)C(CCC7C6CCC6(C)C7CCC6[C@H](C)CCCC(C)C)C5)(CO[C@@H]5OC(CO)[C@@H](O[C@H]6OC(CO)[C@@H](O)C(O)C6O)C(O)C5O)CO[C@@H]5OC(CO)[C@@H](O[C@H]6OC(CO)[C@@H](O)C(O)C6O)C(O)C5O)CCC4(C)C3CCC21C (stereo partly drawn) [TMM-A27]	~0.006 mM	~0.00014 wt %	4.1 ± 0.10 nm	–	–	large	protein activity similar to DDM	–
